Source: publication PMC9386795 (ACS Omega, 2022)
Values after ≈ are worked out from the molar mass of the structure shown. “Also recorded” adds a separate entry of the source.

Legend:
[1] = tested on: methicillin susceptible SA (MSSA), S. aureus ATCC 29213; assay: Broth microdilution MIC assay against MSSA; conditions: for MIC: Staphylococcus aureus, ATCC29213|MSSA, read-out: MSSA MIC
[2] = tested on: wild-type PA (WTPA), P. aeruginosa ATCC 9027; assay: Broth microdilution MIC assay against WTPA; conditions: for MIC: Pseudomonas aeruginosa, ATCC9027, read-out: WTPA MIC
[3] = tested on: electron transport chain in PA vesicles; assay: Electron transport chain activity; type: biochemical, Pseudomonas aeruginosa; conditions: 64 μg/mL compound, NADH
[4] = molecular target: PA ATP synthase (Pseudomonas aeruginosa, UniProt Q9HT15); assay: ATP synthesis assay with PA inverted membrane vesicles; type: biochemical; conditions: for inhibition of PA ATP synthase (in words): PA inverted membrane vesicles; for extent of inhibition of ATP synthesis activity at highest concentration: 128 μg/mL compound
[5] = tested on: PA; conditions: cited from earlier work
[6] = tested on: PA; assay: Adjuvant assay with pentamidine, PA growth in liquid culture; type: cell-based, Pseudomonas aeruginosa; conditions: 50 and 100 μM pentamidine, compared to compound alone
[7] = n = 3, >85% reduction in growth at OD 590 nm

MIC [1] [µg/mL] | MIC [2] [µg/mL] | inhibition of PA ATP synthase (in words) [4] | extent of inhibition of ATP synthesis activity at highest concentration [4] | Molecule | reduction of PA growth when co-dosed with pentamidine (in words) [6] | also measured
64 (≈ 183 µM) | > 256 | dose-dependent inhibition | not complete | COC(=O)[C@@H](CCSC)NCc1cc2ccccc2nc1SC [Compound 17, Methyl ((2-(Methylthio)quinolin-3-yl)methyl)-D-methioninate] | statistically significant reduction | 
> 128 | > 256 | dose-dependent inhibition | complete inhibition | COC(=O)[C@H](Cc1c[nH]c2ccccc12)NCc1cc2ccccc2nc1OC [Compound 18, Methyl ((2-Methoxyquinolin-3-yl)methyl)-L-tryptophanate] | statistically significant reduction; also recorded: largest reduction in PA growth of the set | 
> 128 | > 256 | dose-dependent inhibition | not complete | COC(=O)[C@H](Cc1c[nH]c2ccccc12)NCc1cc2ccccc2nc1SC [Compound 19, Methyl ((2-(Methylthio)quinolin-3-yl)methyl)-L-tryptophanate] | statistically significant reduction | 
> 128 | > 128 |  |  | COC(=O)[C@H](Cc1ccc(O)cc1)NCc1cc2ccccc2nc1OC [Compound 20, Methyl ((2-Methoxyquinolin-3-yl)methyl)-L-tyrosinate] |  | 
> 128 | > 128 | not active |  | COC(=O)[C@H](Cc1ccc(O)cc1)NCc1cc2ccccc2nc1OCc1ccccc1 [Compound 21, Methyl ((2-(Benzyloxy)quinolin-3-yl)methyl)-L-tyrosinate] |  | 
> 128 | > 128 |  |  | COC(=O)[C@@H](Cc1c[nH]cn1)NCc1cc2ccccc2nc1OC [Compound 23, Methyl ((2-Methoxyquinolin-3-yl)methyl)-D-histidinate] |  | 

The remaining lines, values behind:

Molecule | MIC [1] [µg/mL] | MIC [2] [µg/mL] | inhibition of PA ATP synthase (in words) [4] | extent of inhibition of ATP synthesis activity at highest concentration [4] | reduction of PA growth when co-dosed with pentamidine (in words) [6] | also measured
CSc1nc2ccccc2cc1C=O [Compound 6, 2-(Methylthio)quinoline-3-carbaldehyde] | 64 (≈ 315 µM) |  |  |  |  | 
CCOC(=O)C1=C(C)NC(=O)NC1c1cc2ccccc2nc1OC (stereo not shown) [Compound 9, Ethyl 4-(2-Methoxyquinolin-3-yl)-6-methyl-2-oxo-1,2,3,4-tetrahydropyrimidine-5-carboxylate] | > 128 | > 128 |  |  |  | 
COc1nc2ccccc2cc1/C=N/NC(=O)c1ccccc1 [Compound 10, (E)-N′-((2-Methoxyquinolin-3-yl)methylene)benzohydrazide] | > 128 | > 128 | dose-dependent inhibition |  |  | H+ gradient formation by the electron transport chain [3]: significant inhibition; IC50 [4]: 6.55 to 55.7 µM
COc1nc2ccccc2cc1/C=N/N=C/c1cc2ccccc2nc1OC [Compound 11, (1E,2E)-1,2-Bis((2-methoxyquinolin-3-yl)methylene)hydrazine] | > 128 | > 128 |  |  |  | MIC ([5]; PA): 80 µg/mL (≈ 216 µM)
COc1nc2ccccc2cc1/C=N/NC(N)=S [Compound 12, (E)-2-((2-Methoxyquinolin-3-yl)methylene)hydrazine-1-carbothioamide] | > 128 | > 128 |  |  |  | activity against PA (in words) ([5]; compared with 11): weaker activity
COC(=O)[C@H](C)NCc1cc2ccccc2nc1OC [Compound 14, Methyl ((2-Methoxyquinolin-3-yl)methyl)-L-alaninate] | > 128 | > 128 |  |  |  | 
COC(=O)[C@@H](NCc1cc2ccccc2nc1OCc1ccccc1)C(C)C [Compound 15, Methyl ((2-(Benzyloxy)quinolin-3-yl)methyl)-L-valinate] | > 128 | > 256 | dose-dependent inhibition; also recorded: active | not complete | no significant reduction in growth | 
COC(=O)[C@@H](CCSC)NCc1cc2ccccc2nc1OC [Compound 16, Methyl ((2-Methoxyquinolin-3-yl)methyl)-D-methioninate] | > 128 | > 128 |  |  |  | 
COC(=O)[C@H](Cc1ccc(O)cc1)NCc1cc2ccccc2nc1SC [Compound 22, Methyl ((2-(Methylthio)quinolin-3-yl)methyl)-L-tyrosinate] | > 128 | > 256 | dose-dependent inhibition; also recorded: active; also recorded: strongest activity | complete inhibition | statistically significant reduction | 
(E)-2-(2-((2-Methoxyquinolin-3-yl)methylene)hydrazineyl)-4-phenylthiazole [Compound 13] |  |  |  |  |  | MSSA MIC [1, 7]: >128 µg/mL; WTPA MIC [2, 7]: >128 µg/mL
